The results in this text go back to patent US11332438B2, “Creatine prodrugs, compositions and methods of use thereof” (Ultragenyx Pharmaceutical Inc., priority 2017, dated 2022).

Data set [1] is described as follows: Prodrug cleavage in human brain homogenates (HBH): d3-Cr release and d3-Crn cyclization. The class given is in vitro ADME. The following applies: in vitro cleavage assays (Table 3A). The essentials:
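d3-labelled prodrugs (20 and 200 μM final) incubated with FAAH-preserving human brain homogenate (~3-4 mg) or rFAAH plus 1 mM NADPH; controls without enzyme, heat-inactivated enzyme, or 1 μM FAAH inhibitor […]. LC-MS/MS of d3-Cr and d3-Crn at 3 h, each expressed as percent of 200 μM input, net of control for d3-Cr.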

The target of another data set is T1, creatine transporter (Rattus norvegicus, UniProt P28570).
T1 construct: from tissue; host or cells: WT rat, in vivo (brain / blood-brain barrier)
T1 sequence (P28570 1-635): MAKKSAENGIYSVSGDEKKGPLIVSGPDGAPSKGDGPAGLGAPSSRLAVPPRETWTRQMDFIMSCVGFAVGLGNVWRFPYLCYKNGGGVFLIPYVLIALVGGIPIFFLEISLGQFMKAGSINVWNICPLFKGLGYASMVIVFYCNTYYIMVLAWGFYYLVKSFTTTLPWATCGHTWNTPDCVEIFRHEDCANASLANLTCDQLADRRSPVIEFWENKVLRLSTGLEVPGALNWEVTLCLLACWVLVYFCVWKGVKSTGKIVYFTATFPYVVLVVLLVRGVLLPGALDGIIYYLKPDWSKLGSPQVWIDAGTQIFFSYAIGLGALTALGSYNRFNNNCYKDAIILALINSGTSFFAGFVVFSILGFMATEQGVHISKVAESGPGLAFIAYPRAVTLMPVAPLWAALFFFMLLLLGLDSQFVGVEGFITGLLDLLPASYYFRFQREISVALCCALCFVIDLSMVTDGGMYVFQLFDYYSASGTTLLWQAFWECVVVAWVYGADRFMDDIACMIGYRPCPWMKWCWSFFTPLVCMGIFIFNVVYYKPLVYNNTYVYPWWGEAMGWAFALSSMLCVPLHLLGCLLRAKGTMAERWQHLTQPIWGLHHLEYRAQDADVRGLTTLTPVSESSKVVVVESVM
Kind of data set: Co-administration with creatine transporter blocker beta-guanidinopropionic acid (GPA), d3-Cr in WT rat brain. The class given is in vivo.

For `Cl.[2H]C([2H])([2H])N(CC(=O)OCC)C(=N)NC(=O)CCCCCCCCCC` [Compound 8], the “d3-Crn (creatinine) cyclization in vitro (in words)” value in data set [1] is listed as “predominantly creatinine cyclization”; in data set [1] (listed as Compound 8), “predominantly cyclized into creatinine”. For the same molecule, at creatine transporter, the “levels of d3-Cr in WT rat brains with co-administration of GPA compared to dosing alone” value is “did not change”.
